Laboratory results taken from patent US6855513B1 (priority 1999, dated 2005).

How the values were obtained:
Assay type in all cases: cell-based, Pseudomonas aeruginosa
[1] = system: qsc119 (RhlB); experiment: Acyl-HSL induction of β-galactosidase in qsc119 mutant; conditions: qsc119, Class III; 3OC12-HSL 2 μM, C4-HSL 5 μM
[2] = system: qsc106A&B; experiment: Acyl-HSL induction of β-galactosidase in qsc106A&B mutants; conditions: Class I, 3OC12-HSL 2 μM, C4-HSL 5 μM
[3] = system: qsc102; experiment: Acyl-HSL induction of β-galactosidase in qsc102 mutant; conditions: for Signal response (β-galactosidase activity with signal(s) divided by activity without added signals), maximum: qsc102, Class I, 3OC12-HSL 2 μM, C4-HSL 5 μM
Experimental: E. coli and P. aeruginosa were routinely grown in Luria-Bertani (LB) broth or LB agar (Sambrook, et al. (1989) Molecular Cloning: a Laboratory Manual. (Cold Spring Harbor Laboratory, Cold Spring Harbor, N.Y.)), supplemented with antimicrobial agents when necessary. The antimicrobial agents were used at the following concentrations: HgCl2, 15 μg/ml in agar and 7.5 μg/ml in broth; nalidixic acid 20 μg/ml; carbenicillin, 300 μg/ml; tetracycline, 50 μg/ml for P. aeruginosa and 20 μg/ml for E. coli; and gentamicin, 100 μg/ml for P. aeruginosa and 15 μg/ml for E. coli. Synthetic acyl-HSL concentrations were 2 μM for 3OC12-HSL and 5 μM for C4-HSL, and 5-bromo4-chloro-3-indolyl-β-D-galactopyranoside (X-Gal) was used at 50 μg/ml.
Patterns of Acyl-HSL Induction of β-galactosidase Activity in qsc Mutants. The pattern of β-galactosidase expression was examined in response to acyl-HSLs in each of 47 qsc mutants identified in the initial screen. Each mutant was grown in 1 ml of MOPS (50 mM, pH 7.0) buffered LB broth containing one, the other, both, or neither acyl-HSL signal in an 18 mm culture tube at 37° C. with shaking. A mid-logarithmic phase culture was used as an inoculum and initial optical densities (ODs) at 600 nm were 0.1. Growth was monitored as OD at 600 nm and β-galactosidase activity was measured in 0.1 ml samples taken at 0, 2, 5, and 9 hours after inoculation.
One assay used the P. aeruginosa strain QSC102 (Table 3), which responds to the presence of exogenous 3-oxo-C12-HSL by inducing β-galactosidase activity up to 400-fold (Example 1). Cells were grown in the presence of a minimal concentration of 3-oxo-C12-HSL and in the presence and absence of the test compound. If the test compound interferes with signal reception, β-galactosidase activity is reduced. Interference can be a result of any of several mechanisms. The simplest is, if the test compound prevents the 3oxo-C12-HSL from binding to LasR. Alternatively, the test compound may prevent LasR from binding to DNA or interacting productively with RNA polymerase.

[4] = system: qsc128 (Hydrogen cyanide synthase HcnB); conditions: qsc128, Class III; 3OC12-HSL 2 μM, C4-HSL 5 μM
[5] = system: qcs117 (ACP-like protein); experiment: Acyl-HSL induction of β-galactosidase in qcs117 mutant; conditions: qcs117, Class III; 3OC12-HSL 2 μM, C4-HSL 5 μM
[6] = system: quorum sensing signaling (Las system), QSC102 lacZ; experiment: Two-strain (PAO1 / QSC102) screening assay for quorum sensing inhibiting compounds; conditions: β-galactosidase / blue color on X-gal
Experimental: In this example, the screening assay used two strains of P. aeruginosa: a wild type P. aeruginosa (PAO1) and QSC102, from Example 1 (see FIG. 8). This assay will detect inhibition of all aspects of quorum sensing signaling, e.g., signal generation and signal reception.
Microtiter plates are prepared by adding 200 μL Luria Broth (“LB”) agar, containing 0.008% 5-bromo-4-chloro-3-indolyl-β-D-galactose (X-gal) to each well. Overnight cultures of PAO1 and QSC102 are subcultured in LB to a starting absorbance at 600 nm (“A600”) of 0.05 and grown at 37° C to an A600 of 1.0. PAO1 is diluted 2.5×10^5-fold in LB and 5 μL of this is applied to the surface of the LB agar in each well. Plates are then dried in a laminar flow hood for 60 minutes. A tenfold dilution of QSC102 in LB is used to inoculate each well using a replicator. Plates are then sealed and incubated at 37° C for 40 hours. Growth and color development are evaluated visually and the data is recorded with a camera.
The test compound was present in a microtiter well and overlaid with LB agar and 5-bromo-4-chloro-3-indolyl-β-D-galactose (X-gal). Both strains were spotted on the agar in each well. […] Inhibition of signaling was evaluated qualitatively by the absence or weakening of the blue color development.

[7] = system: qsc137 (Asparagine synthetase); experiment: Acyl-HSL induction of β-galactosidase in qsc137 mutant; conditions: qsc137, Class IV; 3OC12-HSL 2 μM, C4-HSL 5 μM
[8] = system: qsc129A&B (Cellulose binding protein p40); experiment: Acyl-HSL induction of β-galactosidase in qsc129A&B mutants; conditions: Class III, 3OC12-HSL 2 μM, C4-HSL 5 μM
[9] = system: qsc104 (Polyamine binding protein); experiment: Acyl-HSL induction of β-galactosidase in qsc104 mutant; conditions: qsc104, Class I; 3OC12-HSL 2 μM, C4-HSL 5 μM
[10] = system: qsc127; experiment: Acyl-HSL induction of β-galactosidase in qsc127 mutant; conditions: qsc127, Class III; 3OC12-HSL 2 μM, C4-HSL 5 μM
[11] = system: qsc134 (Saframycin Mx1 synthetase A); experiment: Acyl-HSL induction of β-galactosidase in qsc134 mutant; conditions: qsc134, Class IV; 3OC12-HSL 2 μM, C4-HSL 5 μM
[12] = system: qsc109 (Bacitracin synthetase 3); experiment: Acyl-HSL induction of β-galactosidase in qsc109 mutant; conditions: qsc109, Class II; 3OC12-HSL 2 μM, C4-HSL 5 μM
[13] = system: qsc110A&B (Pyoverdine synthetase D); experiment: Acyl-HSL induction of β-galactosidase in qsc110A&B mutants; conditions: Class II, 3OC12-HSL 2 μM, C4-HSL 5 μM
[14] = system: qsc138; experiment: Acyl-HSL induction of β-galactosidase in qsc138 mutant; conditions: qsc138, Class IV; 3OC12-HSL 2 μM, C4-HSL 5 μM
[15] = system: qsc118 (RhlI); experiment: Acyl-HSL induction of β-galactosidase in qsc118 mutant; conditions: qsc118, Class III; 3OC12-HSL 2 μM, C4-HSL 5 μM
[16] = system: qsc124A&B (Pyoverdine synthetase D); experiment: Acyl-HSL induction of β-galactosidase in qsc124A&B mutants; conditions: Class III, 3OC12-HSL 2 μM, C4-HSL 5 μM

Row | Compound | Signal response (β-galactosidase activity with signal(s) divided by activity without added signals), maximum [1] | Signal response (β-galactosidase activity with signal(s) divided by activity without added signals), maximum [2] | Signal response (β-galactosidase activity with signal(s) divided by activity without added signals), maximum [3] | Induction of β-galactosidase activity ([3]; strain QSC102, exogenous signal) | Signal response (β-galactosidase activity with signal(s) divided by activity without added signals), maximum [4] | Signal response (β-galactosidase activity with signal(s) divided by activity without added signals), maximum [5] | Response of the QSC102 lacZ fusion to the signal [6] | Signal response (β-galactosidase activity with signal(s) divided by activity without added signals), maximum [7] | Signal response (β-galactosidase activity with signal(s) divided by activity without added signals), maximum [8] | Signal response (β-galactosidase activity with signal(s) divided by activity without added signals), maximum [9] | Signal response (β-galactosidase activity with signal(s) divided by activity without added signals), maximum [10] | Signal response (β-galactosidase activity with signal(s) divided by activity without added signals), maximum [11] | Signal response (β-galactosidase activity with signal(s) divided by activity without added signals), maximum [12] | Signal response (β-galactosidase activity with signal(s) divided by activity without added signals), maximum [13] | Signal response (β-galactosidase activity with signal(s) divided by activity without added signals), maximum [14] | Signal response (β-galactosidase activity with signal(s) divided by activity without added signals), maximum [15] | Signal response (β-galactosidase activity with signal(s) divided by activity without added signals), maximum [16]
1 | CCCCCCCCCC(=O)CC(=O)N[C@H]1CCOC1=O [3OC12-HSL, N-(3-oxododecanoyl) homoserine lactone] | 9 | 9 | 350 | up to 400 fold | 19 | 22 | responded by turning blue | 1 | 15 | 7 | 5 | 6 | 13 | 10 | 3 | 38 | 35
2 | CCCC(=O)N[C@H]1CCOC1=O [C4-HSL, butanoyl-HSL] | 7 | 1 | 1 | – | 12 | 22 | did not respond | 1 | 1 | 2 | 2 | 1 | 1 | 1 | 5 | 14 | 50
